This passage reports EC50 results from ChEMBL document CHEMBL1153689, “Conversion of the phytoestrogen coumestrol into a selective estrogen receptor modulator (SERM) by attachment of an amine-containing sidechain” (Bioorg Med Chem Lett, 1996).

The experiment relates to MCF7. Kind of experiment: Inhibition of MCF-7 cell proliferation. The format is functional, cell-based. The settings on record: Homo sapiens.

The term EC50 denotes the concentration that produces a half-maximal response.

For `Oc1ccc2c(c1)OC(c1ccc(OCCN3CCCCC3)cc1)c1c-2oc2cc(O)ccc12` (stereo unspecified), the EC50 was 40 nM.
